Laboratory results reported in patent US20090098139A1, “Combination therapy for the treatment of neovascular disorders” (priority 2006, published 2009).

Legend:
[1] = test system: animal counterpart of isoform 165; assay: preclinical animal studies: abnormal blood vessel growth in the retina; format: in vivo; details: binding to animal counterpart of VEGF isoform 165
[2] = test system: animal counterpart of isoform 121; assay: preclinical binding to VEGF isoform 121 counterpart; details: preclinical in vitro and animal studies
[3] = test system: normal vessels of the retina; assay: animal study, direct comparison with a VEGF inhibitor that blocks all isoforms: normal retinal vessels; format: in vivo; details: the pan-VEGF isoform inhibitor comparator altered their growth and survival

pegaptanib sodium [Macugen]
inhibition of abnormal blood vessel growth in the retina [1]: highly effective in inhibiting abnormal blood vessel growth in the retina
binding with the animal counterpart of isoform 121 [2]: did not bind with the animal counterpart of isoform 121 to any significant degree
effect on the normal vessels of the retina [3]: did not affect the normal vessels of the retina
